# Test results published in patent US20230190677A1, “PHARMACEUTICAL COMPOSITION FOR PREVENTING OR TREATING AGING-RELATED DISEASES” (INDUSTRY ACADEMIC COOPERATION FOUNDATION CHOSUN UNIVERSITY, priority 2021, published 2023).
# How the values were obtained:
# [1] = test system: hBM-MSCs; assay: Senescence-associated β-galactosidase (SA-β-gal) staining, oxidative stress-induced senescence; type: cell-based, human; details: double time 200 μM H2O2 treated hBM-MSCs (40% without treatment); Lico D 1 μg/mL or ascorbic acid 500 μM for 72 h (FIG. 2C)
# Experimental: (§1) H2O2 was used to induce oxidative stress-induced cell cycle arrest and senescence. Briefly, the cells were exposed to 200 μM H2O2 for 2 h and cultured for 2 d without H2O2. In the second treatment with H2O2, the cells were split 1:3, exposed to 200 μM H2O2 for 2 h, and cultured with either normal media (control), Lico D (1 μg/mL), ascorbic acid (500 μM AA; a positive control), or the compound C (0.5 μM; AMPK inhibitor) for 72 h. Cellular senescence was confirmed by SA-β-gal assay and Western blotting as described below.
# Senescence-associated β-galactosidase positive cells were identified using an SA-β-gal assay kit (Cell Signaling Technology, Danvers, Mass., USA) according to the manufacturer's instructions. Briefly, after 72 h of treatment, cells were washed with phosphate-buffered saline (PBS) and fixed with 1× fixative for 10-15 min at room temperature. The β-galactosidase staining solution (pH 6.0) was added to the plates and incubated overnight in a dry incubator at 37° C. without CO2. The next day, the β-Gal positive cells were observed under a light microscope (Nikon Eclipse TS100; Tokyo, Japan) and captured using a Canon i-Solution IMTcam3 digital camera (Tokyo, Japan).
# [2] = test system: hBM-MSCs; assay: MTT cell viability assay (cytotoxic effect); type: cell-based, human; details: Lico D 0-8 μg/mL for 12 h, MTT (FIG. 1A)
# Experimental: (§2) Human bone marrow derived mesenchymal stem cells (hBM-MSCs) were acquired from Cell Engineering for Origin (CEFO), Seoul, Korea. The cells were free from bacterial, viral, and mycoplasmal contamination. […] The cells were grown in Dulbecco's modified Eagle medium (DMEM) (Gibco, Life Technologies, Grand Island, N.Y., USA) supplemented with 10% FBS (Gibco, Life Technologies, USA), L-glutamine, and 1% penicillin/streptomycin solution (Lonza, Walkersville, Md., USA). The cells were manipulated under sterile conditions in a humidified incubator at 37° C. with 5% CO2 and 95% air. The cells were subcultured as soon as they reached confluence. The cells were serially monitored under bright field microscopy (Nikon Eclipse TS100; Tokyo, Japan), and the media was changed every 3 d.
# (§3) The cytotoxic and protective effects of Lico D in hBM-MSCs were determined using the methylthiazolyldiphenyl-tetrazolium bromide (MTT) test, according to the manufacturer's instructions. To check the cytotoxic effect, hBM-MSCs were grown in a 96-well plate at a density of 8×10^3 cells per well. […] Cell viability was assessed using a spectrophotometer (Multiskan FC, Thermo Fisher Scientific). […] Following H2O2 treatment, cells were treated with MTT solution for 2 h, and cell viability was evaluated.
# [3] = test system: hBM-MSCs; assay: MTT cell viability assay (protective effect against H2O2); type: cell-based, human; details: hBM-MSCs pre-treated with 1 μg/mL for 12 h, then H2O2 0-1 mM for 1 h (FIG. 1B)
# Experimental: as §2, §3
# [4] = test system: hBM-MSCs; assay: Detection of intracellular ROS (DCFH-DA); type: cell-based, human; details: hBM-MSCs pretreated 1 μg/mL 12 h, H2O2 0.7 mM 1 h, vs H2O2 alone (FIGS. 1C, 1D)
# Experimental: (§4) To quantify the production of intracellular ROS, we used cell permeable substrate 2′,7′-dichlorofluorescin diacetate (DCFH-DA), which can be converted to highly detectable fluorescent 2′,7′-dichlorofluorescein upon oxidation. The cells were cultured in 12-well plates and 96-well plates for 24 h. After 24 h of culture, the cells were treated with 1 μg/mL of Lico D for 12 h and incubated with 20 μM DCFH-DA for 30 min. The cells were then washed with a phosphate-buffered saline (PBS) solution and incubated with H2O2 (0.7 mM) for 1 h at 37° C. The cells were then fixed with 4% paraformaldehyde at room temperature (RT) for 15 min and the nuclei were stained with Hoechst. Then, the cells were observed under a fluorescent microscope (Nikon Eclipse Ti2; Japan), and the images were captured (Nikon DS-Ri2; Japan) and analyzed using the Image J software. To analyze the apoptotic markers, the cells were pretreated with 1 μg/mL of Lico D followed by incubation with H2O2 (0.7 mM) for 1 h at 37° C., and then the proteins were isolated as described below.
# [5] = test system: p53 and cleaved caspase 3; assay: Immunoblotting of apoptotic markers after H2O2; type: cell-based, human; details: hBM-MSCs pretreated 1 μg/mL, H2O2 0.7 mM 1 h, vs H2O2 alone (FIG. 1E)
# Experimental: as §4, with “To analyze the apoptotic markers, the cells were pretreated with 1 μg/mL of Lico D followed by incubation with H2O2 (0.7 mM) for 1 h at 37° C., and then the proteins were isolated as described below.” left out
# Total proteins were extracted with RIPA (radioimmunoprecipitation) lysis buffer system containing phenylmethylsulfonyl fluoride (PMSF), sodium orthovanadate (Na3VO4), and protease inhibitor cocktail (Santa Cruz Biotechnology) at 4° C. for 30 min, and the samples were centrifuged (spun down) at 16,000×g for 20 min. The total protein concentration was quantified using the Pierce BCA Protein Assay Kit (Thermo Fisher Scientific). […]
# [6] = test system: p53, p16, and p21; assay: Immunoblotting of senescence markers, oxidative stress-induced senescence; type: cell-based, human; details: double time H2O2 treated hBM-MSCs, Lico D 1 μg/mL 72 h (FIGS. 3A-3D)
# Experimental: as §1
# (§5) Total proteins were extracted with RIPA (radioimmunoprecipitation) lysis buffer system containing phenylmethylsulfonyl fluoride (PMSF), sodium orthovanadate (Na3VO4), and protease inhibitor cocktail (Santa Cruz Biotechnology) at 4° C. for 30 min, and the samples were centrifuged (spun down) at 16,000×g for 20 min. The total protein concentration was quantified using the Pierce BCA Protein Assay Kit (Thermo Fisher Scientific). Proteins (30-50 μg) were loaded and separated via sodium dodecyl sulphate-polyacrylamide gel electrophoresis (SDS-PAGE) gel electrophoresis, followed by blotting on a PVDF membrane (GE Healthcare, Germany). The membranes were blocked with 1% blocking solution containing non-fat dry milk in TBST for 1 h 30 min at RT to prevent non-specific binding of primary antibodies. […]
# [7] = test system: AMPK; assay: Immunoblotting of AMPK activation, oxidative stress-induced senescence; type: cell-based, human
# Experimental: as §1, §5
# [8] = test system: LC3, BECN1, SQSTM1; assay: Immunoblotting of autophagy markers, oxidative stress-induced senescence; type: cell-based, human
# Experimental: as §1
# (§6) Total proteins were extracted with RIPA (radioimmunoprecipitation) lysis buffer system containing phenylmethylsulfonyl fluoride (PMSF), sodium orthovanadate (Na3VO4), and protease inhibitor cocktail (Santa Cruz Biotechnology) at 4° C. for 30 min, and the samples were centrifuged (spun down) at 16,000×g for 20 min. The total protein concentration was quantified using the Pierce BCA Protein Assay Kit (Thermo Fisher Scientific). Proteins (30-50 μg) were loaded and separated via sodium dodecyl sulphate-polyacrylamide gel electrophoresis (SDS-PAGE) gel electrophoresis, followed by blotting on a PVDF membrane (GE Healthcare, Germany). The membranes were blocked with 1% blocking solution containing non-fat dry milk in TBST for 1 h 30 min at RT to prevent non-specific binding of primary antibodies. Subsequently, the membranes were incubated overnight at 4° C. with the corresponding primary antibodies. Secondary antibodies were conjugated with horseradish peroxidase and visualized using an enhanced chemiluminescence detection kit (GE Healthcare). Densitometry analysis was performed using the ImageJ software.
# [9] = Body weight in D-Gal induced aging mice; type: in vivo, C57BL/6 mice; details: D-Gal 150 mg/kg/day i.p. 10 weeks, Lico D 0.5 mg/kg/day i.p. 8 weeks, measured weekly (FIG. 5B)
# Experimental: (§7) Six-week-old male C57BL/6 mice (weighing 22±2 g) were purchased from Samtako Bio Korea Co., Ltd. (Osan, Gyeonggi, Korea) and maintained at 23-25° C. under a 12-h light and 12-h dark cycle with free access to food and water in a pathogen-free facility. All animal experiments were approved by the Institutional Animal Care and Use Committee of Chosun University (CIACUC2020-S0009). After a week of acclimation, the animals were randomly divided into three groups (four mice per group): normal control group (PBS alone), D-Galactose model group (150 mg/kg/day), and D-Galactose +Lico D (0.5 mg/kg/day). The mice were intraperitoneally injected with either PBS or D-Gal for 10 weeks and from the third week onwards, the mice were intraperitoneally injected with Lico D for 8 weeks (FIG. 5A). Body weight was measured every week until the end of the experiment. Thereafter, the MWM (Morris water maze) test was performed for one week.
# [10] = test system: RAGE; assay: qRT-PCR of RAGE in D-Gal induced aging mice; type: in vivo, C57BL/6 mice; details: hippocampus, Lico D 0.5 mg/kg/day i.p. vs D-Gal treated mice (FIG. 5C)
# Experimental: as §7
# RNAisoPlus (Takara) was used to isolate total RNA from the hippocampus and heart tissues. Total RNA (2.5 μg) was then reverse-transcribed using PrimescriptTM II 1st strand cDNA synthesis kit (Takara) and quantified using the Power SYBR Green PCR Master mix (Applied BioSystems). To amplify β-actin and RAGE, the mouse primers in Table 1 below were used. […]
# [11] = test system: D-Gal induced aging mice; assay: Morris water maze (MWM) test in D-Gal induced aging mice; type: in vivo, C57BL/6 mice
# Experimental: as §7
# [12] = test system: p53 and p21; assay: Immunoblotting of senescence markers in heart and hippocampus tissues of D-Gal induced aging mice; type: in vivo, C57BL/6 mice
# Experimental: as §6, with “Densitometry analysis was performed using the ImageJ software.” left out
# (§8) Six-week-old male C57BL/6 mice (weighing 22±2 g) were purchased from Samtako Bio Korea Co., Ltd. (Osan, Gyeonggi, Korea) and maintained at 23-25° C. under a 12-h light and 12-h dark cycle with free access to food and water in a pathogen-free facility. […] Body weight was measured every week until the end of the experiment. […]
# [13] = test system: AMPK; assay: Immunoblotting of AMPK activation in heart and hippocampus tissues of D-Gal induced aging mice; type: in vivo, C57BL/6 mice
# Experimental: as §6, with “Densitometry analysis was performed using the ImageJ software.” left out
# as §8
# [14] = test system: LC3 II, BECN1 and SQSTM1; assay: Immunoblotting of autophagy markers in heart tissue of D-Gal induced aging mice; type: in vivo, C57BL/6 mice; details: Lico D 0.5 mg/kg/day i.p. vs D-Gal-treated mice (FIGS. 8A-8D)
# Experimental: as §6, with “Densitometry analysis was performed using the ImageJ software.” left out
# as §8
# [15] = test system: human melanoma, oral squamous cell carcinoma and lung adenocarcinoma; details: previously reported; cited from earlier work
# [16] = oxidative stress-induced senescent hBM-MSCs, Lico D 1 μg/mL (FIGS. 4A-4D)
compound,measurement,setting,value
"O=C1O[C@H]([C@@H](O)CO)C(O)=C1O [ascorbic acid, reference compound]",number of SA-β-gal-positive cells,[1],17%
"COc1c(/C=C/C(=O)c2ccc(O)c(CC=C(C)C)c2)ccc(O)c1O [Lico D, Licochalcone D]",cell viability,[2],no significant changes in cell viability
same,cell viability under H2O2 oxidative stress,[3],significantly increased
same,intracellular ROS levels,[4],significantly reduced
same,expression of apoptotic proteins p53 and cleaved caspase 3,[5],reduced
same,number of SA-β-gal-positive cells,[1],13%
same,"expression of senescence markers p53, p16, and p21",[6],reduced
same,AMPK activation (pAMPK/AMPK),"[7]; oxidative stress-induced senescent hBM-MSCs, Lico D 1 μg/mL 72 h (FIGS. 3E, 3F)",significantly restored
same,expression levels of LC3 and BECN1,[8]; [16],significantly increased
same,expression of SQSTM1,[8]; [16],decreased
same,body weight,[9],No significant differences
same,RAGE expression at the mRNA level,[10],significantly reduced
same,number of times of target platform crossing (MWM),[11]; Lico D 0.5 mg/kg/day i.p. vs D-Gal treated mouse (FIG. 6C),tendency of increasing
same,escape latency (MWM),"[11]; Lico D 0.5 mg/kg/day i.p. vs D-Gal treated mouse, similar to control (FIG. 6A)",markedly short time
same,duration in target quadrant (MWM),"[11]; Lico D 0.5 mg/kg/day i.p. vs D-Gal treated mouse, similar to control (FIG. 6B)",significantly longer time
same,"expression levels of p53 and p21, heart","[12]; heart tissue, Lico D 0.5 mg/kg/day i.p. vs D-Gal-injected mice (FIGS. 7A-7C)",significantly reduced
same,"expression levels of p53 and p21, hippocampus","[12]; hippocampus tissue, Lico D 0.5 mg/kg/day i.p. vs D-Gal-injected mice (FIGS. 7F-7H)",significantly reduced
same,"AMPK activation, heart","[13]; heart tissue, Lico D 0.5 mg/kg/day i.p. vs D-Gal treatment (FIGS. 7D, 7E)",significantly increased
same,"AMPK activation, hippocampus","[13]; hippocampus tissue, Lico D 0.5 mg/kg/day i.p. vs D-Gal treatment (FIGS. 7I, 7J)",significantly increased
same,"expression of autophagy markers (LC3 II, BECN1 and SQSTM1)",[14],markedly increased
same,anticancer activity,[15],anticancer activity in a dose-dependent manner
"c1cc(-c2cnn3cc(-c4ccc(OCCN5CCCCC5)cc4)cnc23)ccn1 [CC, reference compound]",Lico D-mediated AMPK activation upon treatment with CC,"[7]; senescent hBM-MSCs, compound C 0.5 μM with Lico D (FIGS. 3E, 3F)",abolished
same,AMPK-mediated autophagy upon treatment with CC,"[8]; senescent hBM-MSCs, compound C 0.5 μM with Lico D (FIGS. 4A-4D)",inhibited
